# Earlier results, collected in US10918699B2, “Therapeutic treatment for neurotrophic keratopathy” (priority 2017, dated 2021).
# Key:
# corneal ulcers = details: systemic administration, humans, 1945 case series
# [1] = tested on: cultured sheets of corneal epithelial cells
# [2] = tested on: corneal epithelium wound healing; details: together with substance-P; several pre-clinical studies
Substance,healing of corneal ulcers (corneal ulcers),cell migration and closure of artificial wounds [1],corneal epithelium wound healing [2]
insulin,improved healing,promoted cell migration and closure of artificial wounds,–
Insulin-like growth factor-1 [IGF-1],–,–,act synergistically with substance-P
